# Where “and” joins values, the source holds several entries; their conditions need not be identical. Identical values can stand only once.
# What was measured:
# HER2+ SK-BR-3 cells = test: In vitro efficacy on cell viability (CellTiter 96 AQueous One Solution Cell Proliferation Assay), HER2+ SK-BR-3; type: cell-based; settings: 96 hrs treatment
# Protocol: Antiproliferative activity of the ADCs according to this invention was evaluated on two cell lines and compared with that of the commercial ADC Kadcyla® (T-DM1).
# HER2^+ SK-BR-3 and HER2^− MDA-MB-231 cell lines were grown in DMEM—high glucose (4,500 mg/L) supplemented with 10% fetal calf serum, Penicillin (200 U/mL)-Streptomycin (200 μg/mL) and L-glutamin (4 mM) (all from Sigma Aldrich, St Louis, Mo., USA). The effects of the payloads and ADCs on these cell lines were assessed using CellTiter 96® AQueous One Solution Cell Proliferation Assay (Promega, Madison, Wis., USA). The cytotoxic agent MMAE was used as a positive control of cell death and every condition was performed as triplicates. SKBR-3 cells were plated in 96-well plates at 3,000 cells/well for ADC tests and at 5,000 cells/well for payload tests, in 100 μL medium. MDA-MB231 cells were plated in 96-well plates at 15,000 cells/well, in 100 μL medium. The cells were allowed to adhere for 24 hrs at 37° C. in a humidified atmosphere of 5% CO2. Medium was then removed and replaced by payloads, ADCs, or MMAE, at different concentrations in fresh medium. […] Absorbance was measured at 515 nm using a 96-well plate reader (Flx-Xenius XM, Safas, Monaco), and to estimate the percentage of viable cells according to each treatment, the negative controls were considered as 100% viability. […]
# [1] = tested on: BT-474 ductal carcinoma tumors; test: In vivo anti-tumour efficacy in nude mice bearing subcutaneous BT-474 tumors; design: species or system Balb/c nude mice; settings: single i.v. injection 1 mg/kg, BT-474 tumours in nude mice, versus control group
# Protocol: In vivo therapeutic efficacy of the ADCs of this invention was evaluated in nude mice bearing subcutaneous BT-474 tumors.
# Twenty (20) 6 to 8 week-old Balb/c nude (CByJ.Cg-Foxn1nu/J) females (Charles River Laboratories, L'Arbresles, France) were implanted with BT-474 ductal carcinoma cells (2×10^7) suspended in 200 μL RPMI 1640 medium (Sigma Aldrich) containing matrigel (50:50, v:v, BD Biosciences, France). The injection was performed subcutaneously in the right flank. One day prior implant, the animals were gamma irradiated (2 Gy, ^60Co). The cell transplant was considered as day 0 (D0). Once tumours reached a volume of 200-300 mm^3, mice were randomized according to their individual tumour volume into four distinct groups. The variance of mouse distribution within the groups was analysed to confirm the homogeneity of the groups.
# Animal viability, behaviour and well-being were recorded daily; body weight was measured twice a week; and tumour volume was assessed twice a week with a calliper. The volume of the tumour was estimated formula as follow: volume=(width^2×length)/2.
# Relative tumour volumes (RTV) were calculated according to the following formula:
# Specifically, a principal component analysis (PCA) was carried out using XL Stat software (Addinsoft, Paris, France) in order to compare antitumour activity of T-DM1 and T-APN-Gal-MMAE. […]
substance,measurement,setting,value
trastuzumab emtansine [T-DM1],IC50,HER2+ SK-BR-3 cells,0.033 nM and 0.0342 nM
same,effect on tumour growth,[1],not statistically significant

# Reference: patent US11666657B2, “Protein-drug conjugates and their use in the treatment of cancers” (UNIVERSITE DE STRASBOURG, priority 2017, dated 2023)
